Tested on: Rat chondrocyte
Assay: Influence of TSL-4 on viability of chondrocytes (MTT)
Type: cell-based
Parameters: key to MTT test value: absorbance at 570 nm (MTT)
Protocol: At the end of incubation according to the experimental plan, 10 μL of 5 mg/ml MTT was added to each experimental group based upon 1/10 of the cell culture volume, so that the cells were incubated with MTT in the incubator for 4 hours. Afterwards, supernatant was carefully discarded, and 200 μL of dimethyl sulfoxide (DMSO) was added for mixing well, then the absorbance was measured on a microplate reader at a test wavelength of 570 nm. Calculating formula of relative cell activity ratio (%): a mean value of the absorbance (per well) in the experimental group/the absorbance in the control group multiplies by 100%. […] The difference between each group was analyzed by Prism 7.0, and tested by one-way ANOVA. *P<0.05 means statistical difference, **P<0.01 means significant statistical difference, and […] means extremely significant statistical difference.
The concentration of TSL-4 should be selected within 0.1, 0.3, 1, 3, 9, 27 μM.
In early experiment, the TSL-4 at each concentration had no effect on cell viability, therefore, it was diluted to 0.23 μM from 29.3 μM according to a dilution ratio of 1:5 based upon the concentration (293 μM) of the primary TSL-4 solution.

mIgG4-Fc-(GGGGS)3-HM-3 [TSL-4]
MTT test value (0.1 μM TSL-4, 24 h (Table 24, low-dose), 0 μM 1.23): 1.26 | MTT test value (0.23 μM TSL-4, 24 h (Table 25), 0 μM 1.68): 1.59 | MTT test value (0.3 μM TSL-4, 24 h (Table 24, low-dose), 0 μM 1.23): 1.2 | MTT test value (1 μM TSL-4, 24 h (Table 23), 0 μM 1.43): 1.59 | MTT test value (1 μM TSL-4, 24 h (Table 24, low-dose), 0 μM 1.23): 1.15 | MTT test value (1 μM TSL-4, 48 h (Table 23), 0 μM 1.70): 1.43 | MTT test value (1 μM TSL-4, 72 h (Table 23), 0 μM 1.51): 1.61 | MTT test value (1.17 μM TSL-4, 24 h (Table 25), 0 μM 1.68): 1.4 | MTT test value (3 μM TSL-4, 24 h (Table 23), 0 μM 1.43): 1.67 | MTT test value (3 μM TSL-4, 24 h (Table 24, low-dose), 0 μM 1.23): 1.08 | MTT test value (3 μM TSL-4, 48 h (Table 23), 0 μM 1.70): 1.43 | MTT test value (3 μM TSL-4, 72 h (Table 23), 0 μM 1.51): 1.52 | MTT test value (5.86 μM TSL-4, 24 h (Table 25), 0 μM 1.68): 1.39 | MTT test value (9 μM TSL-4, 24 h (Table 23), 0 μM 1.43): 1.72 | MTT test value (9 μM TSL-4, 48 h (Table 23), 0 μM 1.70): 1.51 | MTT test value (9 μM TSL-4, 72 h (Table 23), 0 μM 1.51): 1.57 | MTT test value (27 μM TSL-4, 24 h (Table 23), 0 μM 1.43): 1.45 | MTT test value (27 μM TSL-4, 48 h (Table 23), 0 μM 1.70): 1.30 | MTT test value (27 μM TSL-4, 72 h (Table 23), 0 μM 1.51): 1.31 | MTT test value (29.3 μM TSL-4, 24 h (Table 25), 0 μM 1.68): 1.24 | influence on cell viability (0.1-3 μM TSL-4, 24 h): no significant difference | influence on cell viability (0.23-29.3 μM TSL-4, 24 h): no significant change in cell viability | influence on cell viability (1-27 μM TSL-4, 24, 48 and 72 hours): no significant influence on cell viability

Reference: patent publication US11655308B2, “HM-3 fusion protein and application thereof” (TASLY BIOPHARMACEUTICALS CO., LTD., priority 2017, dated 2023)
